Results reported in US20250154457A1, “T-CELLS FOR ANTI-HIV CAR-T THERAPY AND METHODS OF USE” (City of Hope, priority 2021, published 2025).

Key:
Format in all cases: cell-based
CCR5 = CCR5 knockdown in Magi.CCR5 reporter cells (PCR and flow cytometry)
Source text: FIGS. 5A-5C. Wobble base CCR5 shRNAs functionality. FIG. 5A. Quantitative PCR analysis of MAGI.CCR5 cells transduced with protection CAR (shCCR5w shTat/Rev anti-HIV CAR), compared to mock-transduced cells and cells transduced with conventional anti-HIV CAR without the shRNA. Decreased levels of CCR5 mRNA indicate successful knock-down using the protection CAR. FIG. 5B. CCR5 surface expression on MAGI.CCR5 cells transduced with the protection CAR compared to CCR5 expression on mock-transduced cells and on cells transduced with anti-HIV CAR without the shRNA. FIG. 5C. CCR5 surface expression on T-cells transduced with protection CAR (shCCR5w shTat/Rev anti-HIV CAR), compared to mock-transduced cells and cells transduced with conventional anti-HIV CAR without the shRNA. Decreased levels of CCR5 are indicative of successful knockdown using anti-CCR5 shRNA.
Next, Applicant determined whether the shRNAs were functional. To test the shCCR5, Applicant transfected the protection and conventional CAR into Magi reporter line expressing CCR5 (Magi.CCR5). […] To confirm knock-down of CCR5, Applicant transduced T-cells with protection and conventional anti-HIV CAR constructs and analyzed CCR5 surface expression.

HPRT = assay: Quantitative PCR of HPRT expression after transfection of shHPRT plasmid in Jurkat cells; conditions: transfected with shHPRT plasmid, FIG. 2A
Description: (§1) FIGS. 2A-2D. 6TG selection of HPRT repressed CAR T-cells. FIG. 2A. Quantitative PCR analysis of HPRT expression following transfection of shHPRT plasmid. Untransfected Jurkat cells were used as a control. FIG. 2B. N6 CAR (control) or shHPRT-N6 CAR were transduced into Jurkat cells and co-cultured with either gp120 expressing HEK293 cells or HEK293 parental cells for 24 hours. Following incubation, the Jurkat cells were analyzed for CD69 expression by flow cytometry. FIG. 2C.

Jurkat cells = assay: 6TG selection of shHPRT-N6 CAR expressing Jurkat cells; conditions: Jurkat cells, 0, 1, or 3 uM 6TG for four days, trypan blue
Description: as §1

T-cells [1] = assay: Growth and phenotype of enrichment anti-HIV CAR T-cells after 6TG selection
[2] = tested on: gp160-expressing HEK293 cells; assay: CD69 activation of 6TG enriched anti-HIV CAR Jurkat cells co-cultured with gp160-expressing HEK293 cells; conditions: 24 hour incubation, 6TG selected vs unselected anti-HIV CAR Jurkat cells
Description: Following a 24 hour incubation, CD69 expression was analyzed.

T-cells [3] = assay: 6TG dose titration and multi-dosing selection of enrichment anti-HIV CAR T-cells
Description: The cell counts of the T-cells, in addition to anti-HIV CAR expression percentage were measured over the course of culturing.

## shCCR5w: anti-CCR5 shRNA wobble base, SEQ ID NO: 11 (AGUGUCAAGUCCAAUUUGUGGUUCAAGAGAUCAUAGAUUGGACUUGACACUUU)
CCR5
  CCR5 knockdown: successful in knocking down CCR5

## anti-HPRT shRNA: shRNA that downregulates expression of the HPRT gene, SEQ ID NO:12 (GCACUGAAUAGAAAUGGUGGUUCAAGAGAUCACUAUUUCUAUUCAGUGCUU)
HPRT
  HPRT expression: robustly repressed

## Nc1nc(=S)c2[nH]cnc2[nH]1 [6TG, 6-thioguanine]
Jurkat cells
  cell counts and viability after 6TG: eliminates cells that lack the anti-HPRT shRNA
T-cells [1]; 6TG-treated vs not subjected to 6TG
  growth of anti-HIV CAR T-cells: equivalent
T-cells [1]; after treatment with 6TG
  total T-cell growth: decreased over the course of culture
T-cells [1]; following 6TG treatment
  exhaustion markers (PD-1, Tim3, Lag-3): No noticeable changes
[2]
  activation as assessed by CD69 levels: decrease in activation
T-cells [3]; 50 nM 6TG, single dose titration
  enrichment of anti-HIV CAR T-cells at 50 nM: most enrichment potential
T-cells [3]; 100 nM 6TG
  effect on cell counts at 100 nM: loss of a number of T-cells transduced with the enrichment anti-HIV CAR construct
T-cells [3]; 6TG, data not shown
  effect on cells at 1 M 6TG: loss of all T-cells
T-cells [3]; 10, 20, and 50 nM 6TG
  effect on cell counts at 10, 20, and 50 nM: exerted toxic effects on the non-transduced T-cells
T-cells [3]; without impacting growth
  optimized dose of 6TG to enrich CAR T-cells: 50 nM
